43 compounds from ChEMBL document CHEMBL1177693, “Antimalarials from nature” (Bioorg Med Chem, 2009) can be followed below.

Each structure is given as a SMILES string. Converted amounts (≈) assume the structure as drawn.

The test system of this test is Plasmodium falciparum. The test can be described thus: Antimalarial activity against Plasmodium falciparum. The format is functional, organism-based. The settings on record: Plasmodium falciparum.
On to `CC1=CC(=O)c2c(O)cccc2C1=O` [PLUMBAGIN], for which the 50% inhibitory concentration (IC50) (usually the concentration that gives 50% inhibition) came to 270 nM.
`C=C1[C@@H](O)[C@@]2(O)OC[C@]34[C@H]2[C@@]2(C)[C@H](O)C(=O)C=C(C)[C@@H]2C[C@H]3OC(=O)[C@H](O)[C@@]14O` [EURYCOMANONE] had an IC50 of 0.04 µg/mL.
In the case of `C=C1C([C@@]2(C)C=CC(=O)C(C)(C)[C@@H]2[C@H](OC(C)=O)C(=O)OC)CC[C@@]2(C)[C@H](c3ccoc3)OC(=O)C[C@]12O` (stereo partly drawn) [DOMESTICULIDE B], the IC50 is 3.2 µg/mL.
On to `COc1ccc2c(c1O)CCc1cc(O)c(C)c3c1C2CC(C)(C)O3` (stereo not drawn) [RACEMOSOL], for which the midpoint of the response, the EC50, lay at 0.9 µg/mL (≈ 2.64 µM).
Take `C=CC(C)(C)c1cc2c(O)c3c(c(C(C)(C)C=C)c2oc1=O)OC(C)(C)C=C3` [CLAUSARIN]: the midpoint of inhibition, the IC50, lay at 0.1 µg/mL.
As to `Cc1cc(O)c2c(c1)[C@@H]([C@H]1O[C@H](OC(=O)c3ccccc3)[C@@H](O)[C@@H](O)[C@@H]1O)c1cccc(O)c1C2=O`, the IC50 is 2400 nM.
For the compound `COc1cc2c(cc1OC)[C@H](Cc1ccc(Oc3c(O)c(OC)cc4c3C[C@@H]3c5c(c(O)c(OC)c(OC)c5-4)CCN3C)cc1)N(C)CC2`, inhibition was half-maximal at 0.0102 µg/mL (IC50).
On the same count and under the same terms, the value for `COc1ccc2cc1Oc1cc3c(cc1OC)CCN(C)[C@@H]3Cc1ccc(cc1)Oc1c(O)c(OC)cc3c1[C@@H](C2)N(C)CC3` was 353 nM.
With `C=C1C(=O)O[C@@H]2C[C@@H](C)/C=C\C(=O)[C@@](C)(O)[C@H](OC(C)=O)[C@@H](OC(=O)CC(C)C)[C@@H]12` [NEUROLENIN B], the IC50 worked out at 620 nM.
In the case of `COc1ccc2c(OC)c3c(C)cc(=O)[nH]c3c(OC)c2c1OC`, the midpoint of inhibition, the IC50, lay at 42900 nM.
Regarding `C/C=C(\C)C(=O)O[C@@H]1[C@H]2C(C)=CC(=O)[C@@H](O)[C@]2(C)[C@H]2[C@]3(O)OC[C@@]24[C@@H]1OC(=O)C[C@H]4[C@@H](C)[C@H]3O`, the IC50 amounted to 0.061 µg/mL.
`C[C@@]12C=C3OC[C@]4(C)C=CC(=O)[C@@](C)([C@@H]34)[C@@]13O[C@H]3C[C@@]1(C)[C@H](C3=CC(O)OC3=O)C[C@H]3O[C@@]321` (mixture of isomers) [TRICHIRUBINE A] yielded an IC50 of 0.3 µg/mL.
`C=C1CC[C@@H]2[C@@](C)(COC(=O)/C=C/c3ccc(O)cc3)CCC[C@@]2(C)[C@@H]1CC[C@H](C)CC(=O)O` yielded an IC50 of 4.3 µg/mL.
`COc1cc2c(cc1O)CCN(C)[C@H]2Cc1ccc(Oc2c(O)c(OC)cc3c2C[C@@H]2c4c(cc(OC)c(OC)c4-3)CCN2C)cc1` registered an IC50 of 0.0112 µg/mL.
On the same count and under the same terms, the value for `C=C[C@@]12COC(=O)C(=C)[C@@H]1[C@@H](O)[C@H](C(=C)C(=O)OC)[C@@H](OC(=O)C(=C)CO)C2` [VERNODALOL] was 4.8 µg/mL.
Regarding `C=C(C)[C@@H]1CC[C@]2(C)CC[C@]3(C)[C@H](CC[C@@H]4[C@@]5(C)CC[C@H](O)C(C)(C)[C@@H]5CC[C@]43C)[C@@H]12` [LUPEOL], the lowest concentration to inhibit growth (MIC) was 13.1 µM (≈ 5.58 µg/mL).
As for `COc1cc2c(=O)c3c(O)c(C/C=C(\C)CCC=C(C)C)c(O)cc3oc2cc1O` [COWAXANTHONE], 1.5 µg/mL corresponded to half-maximal inhibition (IC50).
Turning to `CC1=CC(=O)[C@@H](O)[C@]2(C)[C@H]3[C@]4(O)OC[C@@]35[C@@H](C[C@@H]12)OC(=O)[C@H](O)[C@@]5(O)[C@H](C)[C@H]4O` [PASAKBUMIN C], the IC50 was 0.0933 µg/mL.
As for `C=C1C(=O)O[C@@H]2/C=C(/C)C3=CC(=O)[C@](C)(O3)[C@H](O)[C@@H](OC(=O)CC(C)C)[C@@H]12` [LOBATIN B], the IC50 worked out at 16500 nM.
Regarding `COC(=O)/C(=C/C[C@H]1[C@@]2(CC[C@H]3C(C)(C)CCC[C@@]31C)CO2)C1CO1` (stereo partly drawn), the 50% inhibitory concentration (IC50) is 4970 nM.
In the case of `C=C(CO)[C@@]12O[C@@H]1[C@@]1(C)C(=CC2=O)CC[C@@H](O)[C@@H]1C`, the concentration for a half-maximal effect (EC50) (as a rule, the concentration that produces a half-maximal response) was found to be 0.32 µg/mL (≈ 1.21 µM).
Turning to `COc1cc(O)c(C(=O)CCc2ccccc2)c(O)c1[C@H]1C=C(C)CC[C@@H]1C(C)C`, the IC50 was 5640 nM.
As for `C=C1C2CC[C@@]3(C)[C@H](c4ccoc4)OC(=O)C[C@]13O[C@H]1CC(=O)C(C)(C)[C@H](C(O)C(=O)OC)[C@@]21C` (stereo partly drawn) [6-HYDROXYANGOLENSIC ACID METHYL ESTER], the IC50 was greater than 20 µg/mL.
`C=C1C(=O)[C@@]23CC[C@H]4[C@@]5(C)CCC[C@@]4(OC5=O)[C@@]2(C)CC[C@]1(OC)C3` came in with an IC50 of 0.54 µg/mL.
In the case of `C=C(C)C(=O)O[C@H]1C[C@H](C)C2=CC(=O)[C@](C)(/C=C3/OC(=O)C(COC(C)=O)=C31)O2`, it took 1.8 µg/mL to reach half-maximal inhibition (IC50).
Compound `COc1cc2c3cc1Oc1c(OC)c(OC)cc4c1[C@H](Cc1ccc(OC)c(c1)-c1cc(ccc1O)C[C@H]3N(C)CC2)N(C)CC4` yielded an IC50 of 1140 nM.
Take `C[C@@H]1CC[C@H]2C(C)(C)[C@H](O)CC[C@]2(C)[C@@]12Cc1c(O)cc(C=O)c(C=O)c1O2`: the IC50 was 0.85 µg/mL.
The compound `COc1cc2c3c(c1O)Oc1ccc(cc1)C[C@@H]1c4c(cc(OC)c(O)c4Oc4ccc(cc4)C[C@H]3N(C)CC2)CCN1C` [ISOCHONDODENDRINE] displayed a 50% inhibitory concentration (IC50) of 892 nM.
`NC[C@H](Cl)[C@@H](O)c1c[nH]c(N)n1` [GIRACODAZOLE] displayed a 50% inhibitory concentration (IC50) of 77 nM.
`C=CC(C)(C)c1c2c(c(OC)c3ccc(=O)oc13)C=CC(C)(C)O2` [DENTATIN] registered an IC50 of 8.5 µg/mL.
`COc1c(O)cc2oc3cc(O)c(CC=C(C)C)c(O)c3c(=O)c2c1CC=C(C)C` [MANGOSTIN] returned a concentration for half-maximal inhibition (IC50) of 17000 nM.
As for `C=C1C(=O)O[C@@H]2C[C@@H](C)[C@@H]3C=CC(=O)[C@@]3(C)[C@@H](O)[C@H]12` [HELENALIN], the IC50 is 230 nM.
`O=C1O[C@@H]2[C@@H](OC(=O)c3cc(O)c(O)c(O)c3-c3c1cc(O)c(O)c3O)[C@H](O)O[C@@H]1COC(=O)c3cc(O)c(O)c(O)c3-c3c(O)c(O)c4oc(=O)c5c(c(O)c(O)c6oc(=O)c3c4c65)-c3c(cc(O)c(O)c3O)C(=O)O[C@@H]21` (racemic) [PUNICALAGIN] showed a half-maximal inhibitory concentration (IC50) of 27.7 µg/mL.
For the compound `CC(O)c1cncc2c(=O)n3c(cc12)-c1[nH]c2ccc(O)cc2c1CC3` (stereo not drawn) [NAUCLEOFFICINE E], the IC50 is 38300 nM.
Regarding `COc1cc2c(cc1O)[C@@H]1C[C@H](C[C@H]3CCCCN31)OC(=O)/C=C\c1ccc(O)c-2c1`, half-maximal inhibition (IC50) required 2.8 µg/mL.
The compound `C/C=C(/CO[C@H]1O[C@@H](CO)[C@H](O)[C@@H](O)[C@@H]1O)c1cc2n(c(=O)c1CO)CCc1c-2[nH]c2ccccc12` [NAUCLEOFFICINE A] registered an IC50 of 9700 nM.
On the same count and under the same terms, the value for `C=C(C)C(O)Cc1cc(C(=O)/C=C/c2ccc(O)c(CC=C(C)C)c2)c(O)cc1O` (stereo not drawn) [BARTERICIN A] was 2150 nM; that for `COc1cc2c(cc1OC)[C@@H]1C[C@H](C[C@H]3CCCCN31)OC(=O)/C=C\c1ccc(O)c-2c1` [VERTINE] was 4.76 µg/mL.
For the compound `CC(=O)Oc1cc(C)c(OC(C)=O)c2c1[nH]c1ccccc12`, half-maximal inhibition (IC50) was put at 1.79 µg/mL.
In the case of `CC(C)=CCc1c(O)cc2oc3ccc4c(c3c(=O)c2c1O)C=CC(C)(C)O4` [CALOTHWAITESIXANTHONE], the IC50 is 2.7 µg/mL.
For `CCCCCCCCCCCCCC1CC(=O)NCCCNCCCCNCCCN1` (stereo not drawn) [BUDMUNCHIAMINE L4], the IC50 worked out at 14000 nM.
Consider `O[C@H]1[C@H]2c3cc4c(cc3CN3CCC(=C[C@@H]1O)[C@H]23)OCO4` [LYCORINE], for which the IC50 came out at 0.62 µg/mL.
The compound `C=C1C([C@@]2(C)C=CC(=O)C(C)(C)[C@@H]2[C@H](O)C(=O)OC)CC[C@@]2(C)[C@H](c3ccoc3)OC(=O)C[C@]12O` (stereo partly drawn) [DOMESTICULIDE A] showed a half-inhibitory concentration (IC50) greater than 20 µg/mL.
